How the values were obtained:
Experiment in all cases: Post-emergence efficacy, glasshouse pot test
Format in all cases: in vivo
Details in all cases: evaluated after 13 days
[1] = test system: Amaranthus retoflexus (AMARE)
Protocol: (§1) B1 Post-emergence Efficacy Seeds of a variety of test species are sown in standard soil in pots:— Solanum nigrum (SOLNI), Amaranthus retoflexus (AMARE), Setaria faberi (SETFA), Echinochloa crus-galli (ECHCG), Ipomoea hederacea (IPOHE), Lolium perenne (LOLPE). After 8 days cultivation (post-emergence) under controlled conditions in a glasshouse (at 24/16° C., day/night; 14 hours light; 65% humidity), the plants are sprayed with an aqueous spray solution derived from the formulation of the technical active ingredient in acetone/water (50:50) solution containing 0.5% Tween 20 (polyoxyethylene sorbitan monolaurate, CAS RN 9005-64-5). Compounds are applied at 1000 g/ha and 250 g/ha. The test plants are then grown in a glasshouse under controlled conditions in a glasshouse (at 24/16° C., day/night; 14 hours light; 65% humidity) and watered twice daily. After 13 days, the test is evaluated for the percentage damage caused to the plant. The biological activities are shown below in Table B1, on a five point scale (5=80-100%; 4=60-79%; 3=40-59%; 2=20-39%; 1=0-19%).

[2] = test system: Echinochloa crus-galli (ECHCG)
Protocol: as §1

[3] = test system: Ipomoea hederacea (IPOHE)
Protocol: as §1

Lolium perenne (LOLPE) = test system: Lolium perenne (LOLPE)
Protocol: as §1

Setaria faberi (SETFA) = test system: Setaria faberi (SETFA)
Protocol: as §1

Solanum nigrum (SOLNI) = test system: Solanum nigrum (SOLNI)
Protocol: as §1

Structure (SMILES)	percentage damage caused to the plant, AMARE (five point scale) ([1]; 250 g/Ha)	percentage damage caused to the plant, AMARE (five point scale) ([1]; 1000 g/Ha)	percentage damage caused to the plant, ECHCG (five point scale) ([2]; 250 g/Ha)	percentage damage caused to the plant, ECHCG (five point scale) ([2]; 1000 g/Ha)	percentage damage caused to the plant, IPOHE (five point scale) ([3]; 250 g/Ha)	percentage damage caused to the plant, IPOHE (five point scale) ([3]; 1000 g/Ha)	percentage damage caused to the plant, LOLPE (five point scale) (Lolium perenne (LOLPE); 250 g/Ha)	percentage damage caused to the plant, LOLPE (five point scale) (Lolium perenne (LOLPE); 1000 g/Ha)	percentage damage caused to the plant, SETFA (five point scale) (Setaria faberi (SETFA); 250 g/Ha)	percentage damage caused to the plant, SETFA (five point scale) (Setaria faberi (SETFA); 1000 g/Ha)	percentage damage caused to the plant, SOLNI (five point scale) (Solanum nigrum (SOLNI); 250 g/Ha)	percentage damage caused to the plant, SOLNI (five point scale) (Solanum nigrum (SOLNI); 1000 g/Ha)
O=C1c2nccnc2CS(=O)(=O)C1c1c(Cl)ccc(Cl)c1OCc1ccccc1 (stereo not drawn) [Compound 1.13]	5 (5=80-100%)	5 (5=80-100%)	5 (5=80-100%)	5 (5=80-100%)	5 (5=80-100%)	5 (5=80-100%)	5 (5=80-100%)	5 (5=80-100%)	5 (5=80-100%)	5 (5=80-100%)	5 (5=80-100%)	5 (5=80-100%)
CC1(C)c2nccnc2C(=O)C(c2c(F)ccc(Cl)c2OCc2ccccc2)S1(=O)=O (stereo not drawn) [Compound 1.08, 7-(2-benzyloxy-3-chloro-6-fluoro-phenyl)-5,5-dimethyl-6,6-dioxo-thiopyrano[3,4-b]pyrazin-8-ol]	5 (5=80-100%)	5 (5=80-100%)	4 (4=60-79%)	5 (5=80-100%)	5 (5=80-100%)	5 (5=80-100%)	5 (5=80-100%)	5 (5=80-100%)	5 (5=80-100%)	5 (5=80-100%)	5 (5=80-100%)	5 (5=80-100%)
CC1(C)C(=O)C(c2c(Cl)ccc(Cl)c2OCc2ccccc2)C(=O)c2nccnc21 (stereo not drawn) [Compound 1.01, 7-(2-benzyloxy-3,6-dichloro-phenyl)-8-hydroxy-5,5-dimethyl-quinoxalin-6-one]	5 (5=80-100%)	5 (5=80-100%)	5 (5=80-100%)	5 (5=80-100%)	5 (5=80-100%)	5 (5=80-100%)	5 (5=80-100%)	5 (5=80-100%)	5 (5=80-100%)	5 (5=80-100%)	5 (5=80-100%)	5 (5=80-100%)
CC1(C)C(=O)C(c2c(F)ccc(Cl)c2OCc2ccccc2)C(=O)c2nccnc21 (stereo not drawn) [Compound 1.02]	5 (5=80-100%)	5 (5=80-100%)	5 (5=80-100%)	5 (5=80-100%)	5 (5=80-100%)	5 (5=80-100%)	5 (5=80-100%)	5 (5=80-100%)	5 (5=80-100%)	5 (5=80-100%)	5 (5=80-100%)	5 (5=80-100%)
